Data from patent US5952390A, “10-substituted 1,8-dihydroxy-9(10H) anthracenone pharmaceuticals” (Teva Pharmaceutical Industries Ltd., priority 1998, dated 1999).
Like-named read-outs stand apart in the source and are kept apart here. Blank lines part the entries; values can stand above or below the compound they belong to.

How the values were obtained:
5-LO in bovine PMNL = biological target: T1, 5-LO in bovine PMNL (Bos taurus, UniProt F1MQ78); assay: Bovine PMNL 5-lipoxygenase assay (inhibition of 5-HETE and LTB4 biosynthesis); type: cell-based
T1 construct: endogenous in cells; host or cells: polymorphonuclear leukocytes isolated from bovine blood
T1 sequence (F1MQ78 1-674): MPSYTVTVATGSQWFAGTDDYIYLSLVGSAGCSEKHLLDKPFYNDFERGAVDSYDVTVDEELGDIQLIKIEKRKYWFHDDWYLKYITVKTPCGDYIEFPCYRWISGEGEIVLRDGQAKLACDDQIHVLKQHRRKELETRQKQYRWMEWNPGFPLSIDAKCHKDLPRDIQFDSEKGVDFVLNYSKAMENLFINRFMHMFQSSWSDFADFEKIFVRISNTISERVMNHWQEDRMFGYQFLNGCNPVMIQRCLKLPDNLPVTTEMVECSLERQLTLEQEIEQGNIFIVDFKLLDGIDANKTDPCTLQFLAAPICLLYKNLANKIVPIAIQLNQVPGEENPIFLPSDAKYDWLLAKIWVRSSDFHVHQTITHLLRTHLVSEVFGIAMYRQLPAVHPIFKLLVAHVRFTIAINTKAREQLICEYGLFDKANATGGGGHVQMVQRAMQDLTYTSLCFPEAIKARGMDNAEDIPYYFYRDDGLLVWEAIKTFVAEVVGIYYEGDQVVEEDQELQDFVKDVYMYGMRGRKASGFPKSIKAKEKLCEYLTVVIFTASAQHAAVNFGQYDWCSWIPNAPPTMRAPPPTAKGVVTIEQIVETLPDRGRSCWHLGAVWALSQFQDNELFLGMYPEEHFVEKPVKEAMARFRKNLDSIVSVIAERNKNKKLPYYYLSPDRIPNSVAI

[1] = Degradation of 2-deoxy-D-ribose (hydroxyl radical formation)
Protocol: This assay followed generally the procedures of Gutteridge, J. M. C., "Reactivity of Hydroxyl and Hydroxyl-Like Radicals Discriminated by Release of Thiobarbituric Acid-Reactive Material from Deoxy Sugars, Nucleosides and Benzoate", Biochem. J., 224, 761-767 (1984) and of Laughton, M. J. et al., "Antioxidant and Prooxidant Actions of the Plant Phenolics Quercetin, Gossypol and Myricetin", Biochem. Pharmacol., 38, 2859-2865 (1989). The following reagents were added to glass tubes in the order and at the final concentrations stated. 0.3 ml KH2 PO4 -KOH buffer, pH 7.4 (30 mM), 0.2 ml H2 O bidist., 0.2 ml 2-deoxy-D-ribose (2 mM), 0.2 ml FeCl3 .cndot.6 H2 O (0.1 mM), 0.1 ml anthracenone derivative (75 μM). Stock solutions of the compounds were made up fresh before use. Appropriate blanks and controls with the vehicle (acetonitrile) were conducted. The final reaction volumes were standardized to 1.0 ml. The reaction mixtures were incubated for 2 h at 37° C. in a shaking water bath. 1.0 ml of 2.8% (w/v) trichloroacetic acid and 1.0 ml of 1% (w/v in 0.05 N NaOH) 2-thiobarbituric acid (TBA) were added, and the samples were heated at 100° C. for 15 min and then cooled in an ice bath (5 min). Then 2.0 ml of the reaction mixtures were treated with 0.05 ml of 36% (w/v) HCl and 2.0 ml of 1-butanol and the mixtures were vigorously shaken in a vortex mixer (Heidolph) for 15 s. The organic layer was separated by centrifugation at 3000 rpm (15 min) and the absorbance at 532 nm was measured against butanol. […]
The biological assay methods were as follows: LDH release as described in Muller K, Huang H-S, Wiegrebe W, J. Med. Chem. 39, 3132-3138 (1996); bovine PMNL 5-LO assay as described in Muller K, Gurster D, Piwek S, Wiegrebe W, J. Med. Chem. 36, 4099-4107 (1993); and degradation of 2-deoxy-D-ribose as described in Muller K, Gurster D, Biochem. Pharmacol. 46, 1695-1704 (1993). […] Extracellular LDH activity was measured using the UV method with pyruvate and NADH and is expressly in mU/ml. […]

HaCaT cells [2] = assay: HaCaT keratinocyte proliferation assay; type: cell-based; conditions: Homo sapiens
Excerpt: (§1) The biological assay methods were as follows: LDH release as described in Muller K, Huang H-S, Wiegrebe W, J. Med. Chem. 39, 3132-3138 (1996); bovine PMNL 5-LO assay as described in Muller K, Gurster D, Piwek S, Wiegrebe W, J. Med. Chem. 36, 4099-4107 (1993); and degradation of 2-deoxy-D-ribose as described in Muller K, Gurster D, Biochem. Pharmacol. 46, 1695-1704 (1993). HaCaT keratinocyte proliferation assay was generally described in Muller K, Leukel P, Zeireis K, Gawlik I, J. Med. Chem 37, 1660-1669 (1994). Specifically, the HaCaT cells were incubated with the test compounds (2 microM) for four hours at 37° C. Extracellular LDH activity was measured using the UV method with pyruvate and NADH and is expressly in mU/ml. Appropriate controls with the vehicle were performed (P<0.01; N=3, SD<10%).

HaCaT cells [3] = assay: LDH release in HaCaT cells; type: cell-based; conditions: for LDH release versus vehicle control, in words: 2 microM, 37° C., four hours
Excerpt: as §1
Geisel J.; Mahrle, G. "Lactate dehydrogenase release as an indicator of dithranol-induced membrane injury in cultured human keratinocytes", Arch. Dermatol. Res., 282, 325-329 (1990)). Cytotoxicity against cell cultures by the potent cell growth inhibitors was assessed by the activity of lactate dehydrogenase (LDH) activity release into the culture medium. The release of LDH is commonly used as an indicator of plasma membrane damage.

psoriasis = conditions: in vivo; cited from earlier work
[4] = Reducing activity toward DPPH; conditions: Table I (Addendum); equimolar amount of test compound
Protocol: This assay followed generally the procedures of Blois, M. S., "Antioxidant Determinations by the Use of a Stable Free Radical", Nature, 181, 1199-1200 (1958) and Kato, K. et al., "Studies on Scavengers of Active Oxygen Species. 1. Synthesis and Biological Activity of 2-O-Alkylascorbic Acids", J. Med. Chem., 31, 793-798 (1988). In time studies, 1 ml of test compound solution (10^-4 M) was added to 1 ml of DPPH solution (10^-4 M), each in acetone/PBS (1+1 V/V), and the reduction of DPPH was followed spectrophotometrically at 516 nm. Plots of the reciprocal of DPPH concentrations against time gave straight lines, and the second-orderrate constants were obtained from the slopes and are expressed as mean values (n=3-6). In the cases where DPPH was very fast approximate values are given and expressed as kDPPH >100 or kDPPH >>100M^-1s^-1.
Because a radical scavenging antioxidant reacts rapidly with the stable free radical 2,2-diphenyl-1-picrylhydrazyl (DPPH), Blois, M. S., "Antioxidant Determination by the Use of a Stable Free Radical", Nature, 181, 1199-1200 (1958); Kato, K. et al., "Studies on Scavengers of Active Oxygen Species. I. Synthesis and Biological Activity of 2-O-Alkylascorbic Acids", J. Med. Chem., 31, 793-798 (1988), the reactivities of the new compounds with DPPH were determined by decrease in absorbance at 516 nm.

[5] = Lipid peroxidation in bovine brain phospholipid liposomes; conditions: Table I (Addendum); n = 3 or more; standard errors average 20%; read-out: LPO IC50
Protocol: Phospholipids were prepared essentially as described by Gutteridge, J. M. C., "The Measurement of Malondialdehyde in Peroxidised Ox-Brain Phospholipid Liposomes", Anal. Biochem., 82, 76-82 (1977). Bovine brain, cooled on ice, was freed from blood vessels and washed repeatedly with 0.15M NaCl, pH 7.4. It was cut to pieces and then macerated with an ultra-turrax, passed through a close-meshed sieve, and extracted four times with four times the volume of acetone. The extraction mixture was filtered by suction to remove the acetone, the residue was dried under vacuum, and then repeatedly extracted with petroleum ether (40-60) using twice the volume of the original brain homogenate. The combined extracts were filtered, dried at 45° C., and dissolved in ether (one fifth of the original brain volume). The mixture was treated with five times the volume of acetone, and the resulting precipitate was collected by suction-filtration, dried and stored under N2 at -20° C. in the dark. Bovine brain phospholipids were weighed into glass tubes and shaken in a vortex mixer (Heidolph) in the presence of five small glass beads (.phi. 4 mm) for 1 min. […]
The following reagents were added to glass tubes in the order and at the final concentrations stated. […] The organic layer was separated by centrifugation at 3000 rpm (15 min) and the absorbance at 532 nm was measured against butanol.

[6] = Stability at pH 7.4 in phosphate buffer under lipoxygenase assay incubation; type: physicochemical; conditions: pH 7.4, phosphate buffer, lipoxygenase assay conditions
Protocol: In connection with confirming the resistance to metabolic degradation of the compounds of the invention, the following procedures will be of interest. C-10-acylated compounds of Tanzer et al., Arch. Pharm., 322, 441-444 (1989) were determined to be stable at pH 7.5 when incubated for glucose-6-phosphate dehydrogenase inhibition assays. […] The compounds of the present invention are stable at pH 7.4 (in phosphate buffer) when incubated for the lipoxygenase assay. […] These procedures are expected to be useful in confirming the metabolic stability of the compounds of the invention.

[7] = tested on: LTB4 production in human neutrophils; conditions: depending on cell density; cited from earlier work
[8] = pH 7.5; cited from earlier work
skin = conditions: topical/therapeutic application; cited from earlier work
[9] = tested on: cultured human keratinocytes; conditions: cited from earlier work
[10] = octanol-water; cited from earlier work
[11] = Table V, 2 μM test compound (Example 8)
[12] = Table IV, N = 3, P < 0.01, read-out: AA IC50 (antiproliferative activity)
[13] = Table IV, 2 μM test compound, N = 3, SD < 10%

SMILES: O=C1c2ccccc2Cc2cccc(O)c21 [1-hydroxy-9(10H)-anthracenone]
antipsoriatic efficacy, in words (psoriasis): effective in the treatment of psoriasis

SMILES: CC(Cc1ccc(O)c(O)c1)C(C)Cc1ccc(O)c(O)c1 (centres unmarked) [Nordihydroguaiaretic acid (NDGA), Nordihydroguaiaretic acid]
IC50 (5-LO in bovine PMNL): 400 nM

SMILES: c1ccc2ccccc2c1 [naphthalene]
log P (known values of calibration compounds) [10]: 3.44

SMILES: CC(=O)Oc1cccc2cc3cccc(OC(C)=O)c3c(OC(C)=O)c12 [triacetoxyanthracene]
inhibition at 30 µM (5-LO in bovine PMNL; at 30 μM, bovine PMNL): 15%

The next lines start with results.

IC50 (5-LO in bovine PMNL; Table V, bovine PMNL): 300 nM
DD(OH), deoxyribose degradation ([1]; Table V, footnotes same as in Example 8): < 0.3 μmol of malondialdehyde/mmol o
LDH release (HaCaT cells [3]; [11]): 171 mU
SMILES: CC(CCC(=O)C1c2cccc(O)c2C(=O)c2c(O)cccc21)c1ccccc1 (racemic) [Compound Iw, (R,S)-1,8-dihydroxy-10-(1-oxo-4-phenylpentyl)-9(10H)-anthracenone]
IC50 (HaCaT cells [2]; Table V, footnotes same as in Example 8, read-out: AA IC50 (antiproliferative activity)): 800 nM

IC50 [5]: 12 µM
LDH release (HaCaT cells [3]; [13]): 294 mU
LDH release (HaCaT cells [3]; [11]): 294 mU
time to degradation [6]: ≤ 2 h
SMILES: O=C1c2c(O)cccc2Cc2cccc(O)c21 [Anthralin, 1,8-dihydroxy-9(10H)-anthracenone]
kDPPH [4]: 24.2 ± 4.2 M⁻¹ s⁻¹
IC50 (HaCaT cells [2]; [12]): 700 nM
LDH release versus vehicle control, in words (HaCaT cells [3]): significantly exceeded that of the vehicle control
IC50 [7]: 7 to 74 µM
stability under G6PD inhibition assay incubation, in words [8]: degraded almost completely
antipsoriatic efficacy, in words (psoriasis): effective in the treatment of psoriasis
irritation, in words (skin): non-affected skin surrounding a psoriatic lesion to which anthralin is applied is frequently irritated
membrane damage, in words [9]: cause membrane damage, but did not directly lead to substantial membrane destruction

IC50 (5-LO in bovine PMNL): 600 nM
DD(OH), deoxyribose degradation ([1]; Table IV, released by 75 μm test compound (so in the source)): < 0.3 μmol of malondialdehyde/mmol o
LDH release (HaCaT cells [3]; [13]): 145 mU
SMILES: Cc1ccc(CC(=O)C2c3cccc(O)c3C(=O)c3c(O)cccc32)cc1 [Compound Iv, 1,8-dihydroxy-10-[2-(4-methylphenyl)-1-oxoethyl]-9(10H)-anthracenone]
IC50 (HaCaT cells [2]; [12]): 700 nM
LDH release versus vehicle control, in words (HaCaT cells [3]): not significantly different as compared to vehicle controls

effectiveness as inhibitor of lipoxygenase relative to anthralin (5-LO in bovine PMNL; compared with anthralin): ~100 times
SMILES: O=C1c2c(O)cccc2C(C(=O)CCCc2ccccc2)c2cccc(O)c21 [Ip, 1,8-Dihydroxy-10-(1-oxo-4-phenylbutyl)-9(10H)-anthracenone]
